The values below come from patent US20150017093A1, “RADIOLABELED BILE ACIDS AND BILE ACID DERIVATIVES” (Aarhus Universitet, priority 2012, published 2015).

“Also recorded” adds a separate entry of the source.

The fraction unbound is the share of the substance not bound to proteins or other matrix. A lower fraction unbound goes with little free substance.

The conditions of series [1]: cited from earlier work.
The nature of series [2]: Dynamic ^11C—CSar PET/CT in patients with cholestasis. In kind it is in vivo, human. The following applies: patient with BRIC-1 cholestasis; intravenous infusion. From the text: Two dynamic PET/CT studies in humans have been performed; one in a patient with inherited cholestasis and the other in a patient with drug-induced cholestasis. FIG. 4 illustrates the findings in the patient with inherited cholestasis; a person diagnosed with BRIC-1 (benign recurrent intrahepatic cholestasis), who was examined during a cholestatic episode with severe pruritus, hyperbilirubinemia and high plasma bile acid concentrations. […] Images from the second patient show similar changes.

Series [3] deals with transhepatic transport of ^11C—CSar. The following applies: Pig 1.
Protocol: Pigs 1 and 2 underwent 90-min dynamic PET/CT recordings (list-mode) using intravenous administration of 400 MBq ^11C—CSar. […] In Pig 2, a second ^11C—CSar administration was given to determine the biodistribution of the tracer by means of whole-body PET/CT recordings. In both pigs, at least 6 half-lives of the ^11C-isotope (half-live: 20.4 min) were allowed to pass between tracer administrations.
The decay-corrected dynamic PET data were reconstructed using the iterative TrueX algorithm (3 iterations, 21 subsets) and post-filtered using a 3 mm Gaussian filter yielding 3D-images of 168×168×109 voxels. Time-activity curves (TACs) were generated from volumes of interest (VOIs) drawn in liver tissue, intrahepatic bile ducts, and choledochus using fused PET/CT images.
Series [4] in a line: Plasma free fraction by ultrafiltration. In kind it is in vitro ADME. The following applies: female, Danish Landrace and Yorkshire cross-breed, pig. As for the experimental part:
The plasma free fraction of ^11C—CSar was determined in plasma samples collected prior to tracer administration in all three pigs; moreover, plasma was collected 10 seconds after end of cholyltaurine infusion in Pig 1, i.e. before the ^11C—CSar administration. The plasma samples were mixed with aliquots of ^11C—CSar, pipetted into ultrafiltration units (Pall Nanosep Centrifugal Device, Cut-off 30,000 D, Sigma-Aldrich) and centrifuged at room temperature (10 min at 12,000 rpm). Radioactivity in plasma and ultrafiltrates were counted in the well counter. Filter retention of the tracer was determined using sodium phosphate buffer solution (35 mM; pH 7.2). The free fraction was calculated as the ratio of radioactivity concentration in the ultrafiltrate corrected for filter retention to the total radioactivity concentration in plasma.

Series [5] in a line: Stability of the tracer in its final formulation. In kind it is physicochemical. As to conditions: up to 2.5 h after the end of the synthesis. As for the experimental part:
The three-step radiosynthesis provided 0.56-1.09 GBq of ^11C—CSar (5) with a radiochemical yield of 13±3% (mean±SD; n=7, decay-corrected) and with radiochemical purity >99% within 40 min. The radiochemical yield of the intermediate ^11C-cholylsarcosine methyl ester 4 was approximately 20% and the deprotection proceeded with full conversion to give ^11C—CSar exclusively.

Series [6] can be described thus: Dynamic PET/CT with arterial blood sampling after intravenous ^11C—CSar in pigs. In kind it is in vivo, pig. On the procedure:
Three pigs (3-month old female Danish Landrace and Yorkshire cross-breed; body weight 35-40 kg) were fasted for 18 h with free access to water. Each animal was premedicated with midazolam and s-ketamine, anaesthetized with a mixture of midazolam, s-ketamine and propofol, and mechanically ventilated as previously described (Sørensen M. Munk O L, Mortensen F V, et al. Hepatic uptake and metabolism of galactose can be quantified in vivo by 2-[^18F]fluoro-2-deoxy-galactose positron emission tomography. Am J Physiol Gastrointest Liver Physiol. 2008; 295:G27-G36). The animal was placed on a thermostatically-controlled heating blanket, keeping the rectal temperature 38.5-39.5° C. By adjusting the mechanical respiration, arterial blood pCO2, pO2, and pH were kept between 5.3-7.2 kPa, 12-25 kPa, and 7.35-7.45, respectively. Blood glucose was 5.0-6.7 mM. Catheters (Cordis) were inserted into the femoral vein and artery for intravenous administrations and blood sampling, respectively. After completion of the experiment, the animal was euthanized with an overdose of pentobarbital (100 mg/kg).
For PET/CT studies, the pig was placed on the back in a Siemens Biograph 64 Truepoint PET/CT camera with a 21 cm transaxial PET field-of-view. A CT scan (250 effective mAs with CAREDose4D, 120 kV, pitch 1.0, slice thickness 2.0 mm) was performed for definition of anatomical structures and attenuation correction of the PET recordings.
During the dynamic PET recordings of Pig 1 and 2, blood samples (0.5 mL) were collected from the femoral artery at 12×5, 6×10, 6×30, 5×60, 8×600 seconds. The radioactivity concentrations in the samples were measured in a well counter (Packard Biosciences) that was cross-calibrated to the PET camera. Additional blood samples were collected 2, 5, 10, 20, 40, 60, and 90 min after tracer administration for determination of ^11C-metabolites in plasma.

The nature of series [7]: Whole-body PET/CT biodistribution and dosimetry (OLINDA/EXM), Pig 2. Format: in vivo. As to conditions: for Absorbed dose estimate / Effective dose: Pig 2 (40 kg) extrapolated to 74-kg human; for Effective dose: ICRP 60. As for the experimental part:
For the biodistribution study, ^11C—CSar was administrated intravenously in Pig 2 followed by five whole-body PET scans with one minute between scans and with progressive increase of scan durations per bed-position, i.e. 1, 2, 3, 4 and 5 min, respectively. […] Other source organs (gallbladder, stomach, small intestines, and kidneys) had non-uniform radioactivity distribution and for these organs, the total activity was estimated using a large VOI encompassing all accumulated radioactivity. For each source organ, the time course of the non-decay-corrected total radioactivity was generated. Data were extrapolated from pig (40 kg) to human (74 kg) and recalculated into time courses of fractions of injected dose (% ID). Residence times were computed as the trapezoidal sum of the time course of % ID assuming that the radioactivity decayed only by physical decay after the last scan. Residence time for the rest of the body was calculated as the total body residence time (without voiding) minus the sum of the residence times from the source organs. The residence times were entered into OLINDA/EXM 1.0 (Stabin M G, Sparks R B, Crowe E. OLINDA/EXM: The second-generation personal computer software for internal dose assessment in nuclear medicine. J Nucl Med. 2005; 46:1023-1027) to compute absorbed doses using the male reference phantom and to obtain effective dose values according to ICRP 60.

Setting [8] is: cholyltaurine pretreatment vs. without.

For the molecule `C[C@H](CCC(=O)N(C)CC(=O)O)[C@H]1CC[C@H]2[C@@H]3[C@H](O)C[C@@H]4C[C@H](O)CC[C@]4(C)[C@H]3C[C@H](O)[C@]12C` [CSar, N-methyl-cholylglycine], in series [1], the toxicity to humans entry is given as “non-toxic”. The “biotransformation during enterohepatic circulation” value in series [1] (humans) was “without hepatic or intestinal biotransformation”.
Take `C[C@H](CCC(=O)N([11CH3])CC(=O)O)[C@H]1CC[C@H]2[C@@H]3[C@H](O)C[C@@H]4C[C@H](O)CC[C@]4(C)[C@H]3C[C@H](O)[C@]12C` [^11C—CSar, N-(3α,7α,12α-Trihydroxy-24-oxocholan-24-yl)-N—[^11C]methyl-glycine]: in series [2], the “distribution of tracer on PET/CT 5 min after start of infusion” value was “still observed in the liver; also recorded: still ^11C—CSar in the liver”. In series [2], the “distribution of tracer on PET/CT 25 min after start of infusion” value is “accumulated in the liver and intrahepatic bile ducts”. Moreover, in series [3] (setting [8]), the “decrease of liver tissue TAC with time” value is given as “significantly slower”. Further, in series [3] (setting [8]), the “rate of increase of TAC in the choledochus” value was “much slower rate”. Further, the “maximum value of choledochus TAC relative to that without pretreatment” value in series [3] (pretreatment with cholyltaurine) was 2%. Also, the “maximum radioactivity concentration of liver tissue TAC compared to studies without cholyltaurine” value in series [3] (pretreatment with cholyltaurine 286 mg/kg i.v.) is recorded as “approximately 40%”. For the same molecule, the fraction unbound in series [4] (plasma collected after administration of cholyltaurine (Pig 1)) turned out to be 1; in series [4] (plasma collected before tracer administration, n=3) it was 0.18 ± 0.02. Moreover, the “alterations in chemical or radiochemical purity” value in series [5] is “no alterations”. Further, in series [6] (Pig 1 and 2, after intravenous tracer), the “time to peak of liver TAC” value was at most 3 min. Further, the “uptake into liver tissue” value in series [6] (Pig 1 and 2, intravenous, dynamic PET/CT) is reported as “rapid uptake”. Moreover, the “time of appearance of radioactivity in the intrahepatic bile ducts” value in series [6] (after ^11C—CSar administration) is “approximately one”. Further, the “time at which radioactivity in liver tissue and bile ducts increased again (enterohepatic circulation)” value in series [6] (after administration of the tracer) is given as “about 75 min”. Further, the “time to peak radioactivity concentration in the choledochus” value in series [6] (after tracer administration) fell in the range of 4 to 6 min. In addition, the “time for liver TAC to decrease to very low concentrations” value in series [6] (pig, in vivo) was in the range of 30 to 40 min. In addition, the “time of appearance of radioactivity in the choledochus” value in series [6] (relative to appearance in intrahepatic bile ducts) was “one minute later”. Also, the “peak radioactivity concentration of liver TAC” value in series [6] (relative to arterial TAC) is given as “comparable to the peak concentration of the arterial TAC”. Also, the Absorbed dose estimate in series [7] (Adrenals) is 2.88 μGy/MBq; in series [7] (Bone surface), 2.87 μGy/MBq; in series [7] (Brain), 1.57 μGy/MBq; in series [7] (Breasts) it was 1.66 μGy/MBq; in series [7] (Gallbladder wall), 59.40 μGy/MBq; in series [7] (Heart wall) it was 2.33 μGy/MBq. Further, the Absorbed dose estimate in series [7] (Kidneys) is 2.34 μGy/MBq; in series [7] (Liver) it was 10.80 μGy/MBq; in series [7] (Lower large intestine wall), 3.91 μGy/MBq; in series [7] (Lungs), 2.06 μGy/MBq; in series [7] (Muscle), 2.23 μGy/MBq; in series [7] (Ovaries) it was 4.97 μGy/MBq. Moreover, the Absorbed dose estimate in series [7] (Pancreas) is on record as 3.36 μGy/MBq; in series [7] (Red marrow) it was 2.34 μGy/MBq; in series [7] (Skin) it was 1.61 μGy/MBq; in series [7] (Small intestine) it was 39.30 μGy/MBq; in series [7] (Spleen), 2.37 μGy/MBq; in series [7] (Stomach wall), 3.92 μGy/MBq. For the same molecule, the Absorbed dose estimate was 1.82 μGy/MBq in series [7] (Testes); 1.88 μGy/MBq in series [7] (Thymus); 1.78 μGy/MBq in series [7] (Thyroid); 2.83 μGy/MBq in series [7] (Total body); 7.07 μGy/MBq in series [7] (Upper large intestine wall); 2.67 μGy/MBq in series [7] (Urinary bladder wall). Further, the Absorbed dose estimate in series [7] (Uterus) is given as 4.62 μGy/MBq. In addition, the figures for the Effective dose in series [7] and in series [7] (listed as 11C-CSar) were 4.4 μSv/MBq and 4.40 μSv/MBq, respectively. Further, the “organs with high accumulation of tracer relative to surrounding tissue” value in series [7] (Pig 2, whole-body PET scans) was “liver, gallbladder, stomach, and small intestines”. Besides, the “radioactivity in other organs, including the urinary bladder” value in series [7] (Pig 2, whole-body PET scans) is listed as “Virtually no radioactivity was detected”.
Take cholyltaurine [reference compound]: in series [3] (286 mg/kg intravenous 50-second infusion before tracer), the “effect on hepatic uptake and biliary excretion of ^11C—CSar” value was “markedly inhibited”.
